From ChEMBL document CHEMBL1143544, “The role of QSAR in dopamine interactions” (Bioorg Med Chem Lett, 2005)

Key:
[1] = molecular target: Sodium-dependent dopamine transporter (Homo sapiens, UniProt Q01959); test: Ability of compound to inhibit dopamine uptake of receptor was determined; settings: read-out: Log 1/Ki (converted)
[2] = Binding affinity towards dopamine receptor D2 was determined; design: species or system Homo sapiens
[3] = Binding affinity towards dopamine receptor D3 was determined; design: species or system Homo sapiens
[4] = Binding affinity towards dopamine receptor D4 was determined; design: species or system Homo sapiens
[5] = Binding affinity of compound towards dopamine receptor D3 was determined; design: species or system Homo sapiens
[6] = Binding affinity of compound towards dopamine receptor D2 was determined; design: species or system Homo sapiens
[7] = Binding affinity to displace [3H]spiperone from dopamine receptor D2 was determined; design: species or system Homo sapiens
D(2) dopamine receptor = D(2) dopamine receptor (Homo sapiens, UniProt P14416)
Description: Binding affinity towards human dopamine receptor D2 was determined by using [3H]spiperone as radioligand

D(4) dopamine receptor = molecular target: T1, D(4) dopamine receptor (Homo sapiens, UniProt P21917); test: biochemical
T1 sequence (P21917 whole entry): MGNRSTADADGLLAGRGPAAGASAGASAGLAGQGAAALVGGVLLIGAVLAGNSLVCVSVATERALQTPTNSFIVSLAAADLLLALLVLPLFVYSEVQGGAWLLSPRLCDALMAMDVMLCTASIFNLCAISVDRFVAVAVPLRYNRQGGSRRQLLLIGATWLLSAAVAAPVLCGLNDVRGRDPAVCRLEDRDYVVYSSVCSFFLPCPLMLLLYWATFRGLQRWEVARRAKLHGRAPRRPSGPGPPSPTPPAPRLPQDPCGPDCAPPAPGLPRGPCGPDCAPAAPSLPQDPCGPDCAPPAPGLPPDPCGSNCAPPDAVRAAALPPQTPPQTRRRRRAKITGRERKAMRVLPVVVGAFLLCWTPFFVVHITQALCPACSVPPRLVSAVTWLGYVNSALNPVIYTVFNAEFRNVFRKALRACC
Description: Binding affinity towards human dopamine receptor D4 expressed in CHO cells was determined by using [3H]thymidine as radioligand

D(2) dopamine receptor, sequence (P14416 whole entry): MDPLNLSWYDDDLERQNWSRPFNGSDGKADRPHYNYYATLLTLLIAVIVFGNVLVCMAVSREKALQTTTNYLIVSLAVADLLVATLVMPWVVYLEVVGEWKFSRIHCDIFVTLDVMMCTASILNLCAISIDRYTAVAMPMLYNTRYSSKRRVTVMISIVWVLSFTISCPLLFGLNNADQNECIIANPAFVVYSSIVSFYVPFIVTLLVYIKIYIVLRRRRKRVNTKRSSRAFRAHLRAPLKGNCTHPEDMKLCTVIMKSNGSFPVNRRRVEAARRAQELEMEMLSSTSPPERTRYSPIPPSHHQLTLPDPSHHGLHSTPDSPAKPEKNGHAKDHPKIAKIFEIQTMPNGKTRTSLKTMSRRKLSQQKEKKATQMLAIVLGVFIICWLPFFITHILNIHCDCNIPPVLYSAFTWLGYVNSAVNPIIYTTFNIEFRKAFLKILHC
Sodium-dependent dopamine transporter, sequence (Q01959 whole entry): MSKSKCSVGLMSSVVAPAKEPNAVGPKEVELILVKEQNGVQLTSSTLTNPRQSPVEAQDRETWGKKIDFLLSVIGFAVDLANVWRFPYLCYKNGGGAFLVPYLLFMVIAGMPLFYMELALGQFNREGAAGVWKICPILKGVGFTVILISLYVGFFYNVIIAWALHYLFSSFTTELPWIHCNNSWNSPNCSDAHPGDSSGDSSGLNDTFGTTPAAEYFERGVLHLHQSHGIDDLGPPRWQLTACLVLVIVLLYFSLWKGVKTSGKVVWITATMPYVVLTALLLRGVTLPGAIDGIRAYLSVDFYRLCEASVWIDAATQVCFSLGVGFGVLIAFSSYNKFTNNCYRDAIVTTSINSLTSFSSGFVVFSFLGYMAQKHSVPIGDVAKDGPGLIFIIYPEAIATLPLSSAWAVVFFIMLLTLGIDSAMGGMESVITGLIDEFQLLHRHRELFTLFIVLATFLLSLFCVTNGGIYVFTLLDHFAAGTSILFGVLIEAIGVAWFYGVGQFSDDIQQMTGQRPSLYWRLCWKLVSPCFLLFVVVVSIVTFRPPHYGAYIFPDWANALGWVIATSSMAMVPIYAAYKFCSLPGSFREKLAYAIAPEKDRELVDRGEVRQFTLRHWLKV

Work on Fc1ccc(C(OC2CC3CCC(C2)N3CCCOc2ccccc2)c2ccc(F)cc2)cc1 (stereo not given) yielded a Ki [1] of 229 nM.

Molecule O=C(NCCN1C2CCC1CC(OC(c1ccc(F)cc1)c1ccc(F)cc1)C2)c1cccnc1 (stereo not given) has a Ki [1] of 14.1 nM.

In the case of O=C(NCCN1C2CCC1CC(OC(c1ccc(F)cc1)c1ccc(F)cc1)C2)c1ccccc1 (stereo not given), the Ki [1] is reported as 6.46 nM.

Molecule Fc1ccc(C(OC2CC3CCC(C2)N3CCOCCN2CCOCC2)c2ccc(F)cc2)cc1 (stereo not given) has a Ki [1] of 661 nM.

In the case of O=C(CCCN1CCC(c2ccc(Cl)cc2)CC1)c1ccc(F)cc1, the “Log 1/Ki” value [2] is reported as 7.81, the “Log 1/Ki” value [3] is reported as 7.34 and the “Log 1/Ki” value [4] is reported as 7.59.

With O=C(CCCN1CCC(CO)(c2ccc(Cl)cc2)CC1)c1ccc(F)cc1 the “Log 1/Ki” value [2] was 7.81, the “Log 1/Ki” value [3] was 6.96 and the “Log 1/Ki” value [4] was 7.11.

With O=C(CCCN1CCC(CO)(c2ccc(Cl)cc2)C1)c1ccc(F)cc1 (stereo not given) the “Log 1/Ki” value [2] was 7.36, the “Log 1/Ki” value [3] was 6.78 and the “Log 1/Ki” value [4] was 7.62.

With CN1CCN(C2=Cn3c(/C=N/O)ccc3Sc3ccccc32)CC1 the “Log 1/Ki” value [5] was 5.37.

For Cn1c(=O)c2c(nc3nc(NCCCN4CCN(c5cccc(Cl)c5)CC4)ccn32)n(C)c1=O, the “Log 1/Ki” value [6] was 7.03.

In the case of Cc1ccc(CC2(O)CCN(CCCC(=O)c3ccc(F)cc3)CC2)cc1, the “Log 1/Ki” value [2] is reported as 8.1, the “Log 1/Ki” value [3] is reported as 8.05 and the “Log 1/Ki” value [4] is reported as 7.23.

With Cn1c(=O)c2c(nc3nc(NCCCN4CCN(c5ccccc5)CC4)ccn32)n(C)c1=O the “Log 1/Ki” value [6] was 6.37.

With CCCc1cc(OC)c(OC)c(C(=O)NCC2CCCN2CC)c1O (stereo not given) the “Log 1/Ki” value [7] was 8.89.

With Cn1c2c(c(=O)n(C)c1=O)N1CC(Br)=C(NCCN3CCN(c4ccccc4)CC3)NC1N2 (stereo not given) the “Log 1/Ki” value [6] was 5.9.

With COc1ccccc1N1CCN(CCCNc2nc3nc4c(c(=O)n(C)c(=O)n4C)n3cc2Br)CC1 the “Log 1/Ki” value [6] was 6.49.

In the case of COc1ccccc1N1CCN(CCNC2=CCN3c4c(n(C)c(=O)n(C)c4=O)NC3N2)CC1 (stereo not given), the “Log 1/Ki” value [6] is reported as 5.88.

With Cn1c2c(c(=O)n(C)c1=O)N1CC(Br)=C(NCCN3CCN(c4cccc(Cl)c4)CC3)NC1N2 (stereo not given) the “Log 1/Ki” value [6] was 6.78.

In the case of Cn1c(=O)c2c(nc3nc(NCCCN4CCN(c5ccccc5)CC4)c(Br)cn32)n(C)c1=O, the “Log 1/Ki” value [6] is reported as 6.38.

For CN(CCCC(=O)c1ccc(F)cc1)CCC(O)c1ccc(Cl)cc1 (stereo not given), the “Log 1/Ki” value [2] was 7.58, the “Log 1/Ki” value [3] was 6.79 and the “Log 1/Ki” value [4] was 6.72.

For CCN1CCCC1CNC(=O)c1cc(CCCF)cc(OC)c1OC (stereo not given), the “Log 1/Ki” value [7] was 8.36.

For CCN1CCCC1CNC(=O)c1cc(CCF)cc(OC)c1OC (stereo not given), the “Log 1/Ki” value [7] was 8.28.

For CCN1CCCC1CNC(=O)c1c(O)c(CCCF)cc(OC)c1OC (stereo not given), the “Log 1/Ki” value [7] was 9.1.

For Cn1c(=O)c2c(nc3nc(NCCCN4CCN(c5cccc(Cl)c5)CC4)c(Br)cn32)n(C)c1=O, the “Log 1/Ki” value [6] was 6.58.

For COc1ccccc1N1CCN(CCNC2=C(Br)CN3c4c(n(C)c(=O)n(C)c4=O)NC3N2)CC1 (stereo not given), the “Log 1/Ki” value [6] was 6.65.

With CCCc1cc(OC)c(OC)c(C(=O)NCC2CCCN2CC)c1 (stereo not given) the “Log 1/Ki” value [7] was 8.16.

With COc1ccccc1N1CCN(CCCCNC(=O)c2ccc(-c3ccc(C(C)=O)cc3)cc2)CC1 the “Log Ki” value [3] was -9.5.

For O=C(NCN1CCN(c2ccccc2Cl)CC1)c1cccc(Cl)c1, the Ki (D(2) dopamine receptor) was 363 nM.

COc1ccccc1N1CCN(CNC(=O)c2cccc(C)c2)CC1 gave a Ki (D(4) dopamine receptor) of 12.9 nM and a Ki (D(2) dopamine receptor) of 2450 nM.

Molecule O=C(NCN1CCN(c2ccccc2Cl)CC1)c1ccc(Cl)cc1 has a Ki (D(4) dopamine receptor) of 8.32 nM and a Ki (D(2) dopamine receptor) of 66.1 nM.

Work on Cc1cccc(C(=O)NCN2CCN(c3ccccc3Cl)CC2)c1 yielded a Ki (D(4) dopamine receptor) of 15.8 nM and a Ki (D(2) dopamine receptor) of 468 nM.

O=C(NCN1CCN(c2ccccc2Cl)CC1)c1ccccc1 showed a Ki (D(4) dopamine receptor) of 107 nM and a Ki (D(2) dopamine receptor) of 178 nM.

Work on Cc1ccc(C(=O)NCN2CCN(c3ccccc3C#N)CC2)cc1 yielded a Ki (D(4) dopamine receptor) of 1.2 nM and a Ki (D(2) dopamine receptor) of 380 nM.

For O=C(CCN1[C@@H]2CC[C@H]1C[C@@H](OC(c1ccc(F)cc1)c1ccc(F)cc1)C2)Nc1ccccc1, the Ki [1] was 5.01 nM.

NCCN1[C@@H]2CC[C@H]1C[C@@H](OC(c1ccc(F)cc1)c1ccc(F)cc1)C2 showed a Ki [1] of 25.7 nM.

With CCN1CCCC1CNC(=O)c1cc(Br)cc(OC)c1OC (stereo not given) the “Log 1/Ki” value [7] was 9.12.

Work on Fc1ccc(C(OC2CC3CCC(C2)N3CCNCc2ccccc2)c2ccc(F)cc2)cc1 (stereo not given) yielded a Ki [1] of 8.13 nM.

Work on Fc1ccc(C(OC2CC3CCC(C2)N3CCOCc2ccccc2)c2ccc(F)cc2)cc1 (stereo not given) yielded a Ki [1] of 22.4 nM.

For OCCOCCN1C2CCC1CC(OC(c1ccc(F)cc1)c1ccc(F)cc1)C2 (stereo not given), the Ki [1] was 49 nM.

In the case of Fc1ccc(C(OC2CC3CCC(C2)N3CCOCc2cccs2)c2ccc(F)cc2)cc1 (stereo not given), the Ki [1] is reported as 18.6 nM.

For O=C(CCCN1CCC(CCO)(c2ccc(Cl)cc2)C1)c1ccc(F)cc1 (stereo not given), the “Log 1/Ki” value [2] was 7.64, the “Log 1/Ki” value [3] was 7.49 and the “Log 1/Ki” value [4] was 6.71.

In the case of Cn1c2c(c(=O)n(C)c1=O)N1CC=C(NCCN3CCN(c4cccc(Cl)c4)CC3)NC1N2 (stereo not given), the “Log 1/Ki” value [6] is reported as 6.74.

With CCN1CCCC1CNC(=O)c1c(O)c(CCF)cc(OC)c1OC (stereo not given) the “Log 1/Ki” value [7] was 9.11.

In the case of N#Cc1ccccc1N1CCN(CNC(=O)c2ccccc2)CC1, the Ki (D(4) dopamine receptor) is reported as 24 nM and the Ki (D(2) dopamine receptor) is reported as 3020 nM.

In the case of COc1ccccc1N1CCN(CCCCNC(=O)c2ccc(-c3ccc(S(C)(=O)=O)cc3)cc2)CC1, the “Log Ki” value [3] is reported as -9.5.

In the case of COc1ccccc1N1CCN(CCCNc2ccn3c(n2)nc2c3c(=O)n(C)c(=O)n2C)CC1, the “Log 1/Ki” value [6] is reported as 5.93.

COc1ccccc1N1CCN(CNC(=O)c2ccccc2)CC1 gave a Ki (D(4) dopamine receptor) of 30.9 nM and a Ki (D(2) dopamine receptor) of 2450 nM.

In the case of COc1ccccc1N1CCN(CNC(=O)c2cccc(Cl)c2)CC1, the Ki (D(2) dopamine receptor) is reported as 1450 nM.

With COc1ccccc1N1CCN(CNC(=O)c2ccc(Cl)cc2)CC1 the Ki (D(4) dopamine receptor) was 3.47 nM and the Ki (D(2) dopamine receptor) was 269 nM.

Work on N#Cc1ccccc1N1CCN(CNC(=O)c2cccc(Cl)c2)CC1 yielded a Ki (D(4) dopamine receptor) of 5.25 nM and a Ki (D(2) dopamine receptor) of 2290 nM.

N#Cc1ccccc1N1CCN(CNC(=O)c2ccc(Cl)cc2)CC1 showed a Ki (D(4) dopamine receptor) of 3.89 nM and a Ki (D(2) dopamine receptor) of 603 nM.

COc1ccccc1N1CCN(CNC(=O)c2ccc(C)cc2)CC1 showed a Ki (D(4) dopamine receptor) of 3.39 nM and a Ki (D(2) dopamine receptor) of 174 nM.

Cc1ccc(C(=O)NCN2CCN(c3ccccc3Cl)CC2)cc1 gave a Ki (D(4) dopamine receptor) of 219 nM and a Ki (D(2) dopamine receptor) of 49 nM.

For COc1ccc(OC)c(N2CCN(CCCCNC(=O)c3ccc(Br)cc3)CC2)c1, the “Log Ki” value [3] was -8.5.

With O=C(NCCCCN1CCN(c2ccccc2)CC1)c1ccc(Br)cc1 the “Log Ki” value [3] was -8.2.

In the case of COc1ccccc1N1CCN(CCCCNC(=O)c2ccc(Br)cc2)CC1, the “Log Ki” value [3] is reported as -9.3.

With COc1ccccc1N1CCN(CCCCNC(=O)c2ccc(-c3ccc(N)cc3)cc2)CC1 the “Log Ki” value [3] was -9.7.

In the case of CCN1CCCC1CNC(=O)c1cccc(OC)c1OC (stereo not given), the “Log 1/Ki” value [7] is reported as 7.18.
